Data reported in patent US4147861A, “1N-(α-Hydroxy-ω-aminoalkanoyl)- 6'N-methyl-3',4'-dideoxykanamycin B and the production thereof” (Zaidan Hojin Biseibutsu Kagaku Kenkyu Kai, priority 1977, dated 1979).
In brackets after ≈: the same amount, converted by molar mass. Where two headings read alike, the source gives them in different places.

What was measured:
[1] = tested on: Pseudomonas aeruginosa TI-13; experiment: Minimum inhibitory concentration, serial dilution method on nutrient agar; assay type: cell-based; conditions: read-out: Minimum Inhibitory Concentrations
Escherichia coli W677 = experiment: as above; assay type: cell-based; conditions: Escherichia coli W677; 37° C., 18 hours; read-out: Minimum Inhibitory Concentrations
[2] = tested on: Corynebacterium bovis 1810; experiment: as above; assay type: cell-based; conditions: Corynebacterium bovis 1810; 37° C., 18 hours; read-out: Minimum Inhibitory Concentrations
Escherichia coli K-12 = experiment: as above; assay type: cell-based; conditions: K12; Escherichia coli K-12; 37° C., 18 hours; read-out: Minimum Inhibitory Concentrations
[3] = tested on: Pseudomonas aeruginosa 99; experiment: as above; assay type: cell-based; conditions: 37° C., 18 hours, read-out: Minimum Inhibitory Concentrations
[4] = tested on: Klebsiella pneumoniae PCT 602; experiment: as above; assay type: cell-based; conditions: PCT602; Klebsiella pneumoniae PCT 602; 37° C., 18 hours; read-out: Minimum Inhibitory Concentrations
[5] = tested on: Staphylococcus aureus Terajima; experiment: as above; assay type: cell-based; conditions: 37° C., 18 hours, read-out: Minimum Inhibitory Concentrations
[6] = tested on: Escherichia coli K-12 ML 1629; experiment: as above; assay type: cell-based; conditions: K12ML1629; Escherichia coli K-12 ML 1629; 37° C., 18 hours; read-out: Minimum Inhibitory Concentrations
[7] = tested on: Klebsiella pneumoniae 22 No. 3038; experiment: as above; assay type: cell-based; conditions: 37° C., 18 hours, read-out: Minimum Inhibitory Concentrations
Protocol: (§1) The minimum inhibitory concentrations (mcg./ml.) of 1N-(DL-isoseryl)-6'N-methyl-3',4'-dideoxykanamycin B (abbreviated as DL-IS-MDKB); 1N-(L-isoseryl)-6'N-methyl-3',4'-dideoxykanamycin B (abbreviated as L-IS-MDKB); 1N-(L-4-amino-[…])-6'N-methyl-3',4'-dideoxykanamycin B (abbreviated as AHB-MDKB); and 1N-(L-5-amino-2-hydroxyvaleryl)-6'N-methyl-3',4'-dideoxykanamycin B (abbreviated as AHV-MDBK) against various organisms were determined according to serial dilution method using nutrient agar medium at 37° C., the readings being made after 18 hours incubation. For the comparison purpose, the minimum inhibitory concentrations (mcg./ml.) of 1 N-(L-4-amino-2-hydroxybutyryl)-kanamycin A (abbreviated as AHB-KMA) and 1N-([…])-kanamycin B (abbreviated as AHB-KMB) which are known from U.S. Pat. No. 3,781,268 were also determined by the same manner as stated above.

Shigella sonnei JS 11746 = experiment: as above; assay type: cell-based; conditions: JS11746, 37° C., 18 hours, read-out: Minimum Inhibitory Concentrations
Protocol: as §1

[8] = tested on: Shigella flexneri 4b JS 11811; experiment: as above; assay type: cell-based; conditions: 4BJS11811, 37° C., 18 hours, read-out: Minimum Inhibitory Concentrations
Protocol: as §1

[9] = tested on: Pseudomonas aeruginosa A3; experiment: as above; assay type: cell-based; conditions: 37° C., 18 hours, read-out: Minimum Inhibitory Concentrations
Protocol: as §1

[10] = tested on: Escherichia coli K-12 ML 1630; experiment: as above; assay type: cell-based; conditions: K12ML1630, 37° C., 18 hours, read-out: Minimum Inhibitory Concentrations
Protocol: as §1

Proteus vulgaris OX 19 = experiment: as above; assay type: cell-based; conditions: OX19; Proteus vulgaris OX 19; 37° C., 18 hours; read-out: Minimum Inhibitory Concentrations
Sarcina lutea PCI 1001 = experiment: as above; assay type: cell-based; conditions: Micrococcus luteus, read-out: Minimum Inhibitory Concentrations
[11] = tested on: Escherichia coli LA290 R64; experiment: as above; assay type: cell-based; conditions: LA290R64, 18 h, read-out: Minimum Inhibitory Concentrations
Escherichia coli NIHJ = experiment: as above; assay type: cell-based; conditions: Escherichia coli NIHJ; 37° C., 18 hours; read-out: Minimum Inhibitory Concentrations
[12] = tested on: Staphylococcus aureus FDA 209P; experiment: as above; assay type: cell-based; conditions: FDA209P, 37° C., 18 hours, read-out: Minimum Inhibitory Concentrations
[13] = tested on: Escherichia coli LA290 R55; experiment: as above; assay type: cell-based; conditions: LA290R55, 18 h, read-out: Minimum Inhibitory Concentrations
[14] = tested on: Bacillus subtilis PCI 219; experiment: as above; assay type: cell-based; conditions: PCI219, 37° C., 18 hours, read-out: Minimum Inhibitory Concentrations
[15] = tested on: Pseudomonas aeruginosa No. 12; experiment: as above; assay type: cell-based; conditions: read-out: Minimum Inhibitory Concentrations
[16] = tested on: Escherichia coli K-12 ML 1410; experiment: as above; assay type: cell-based; conditions: K12ML1410; Escherichia coli K-12 ML 1410; 37° C., 18 hours; read-out: Minimum Inhibitory Concentrations
[17] = tested on: Pseudomonas aeruginosa GN315; experiment: as above; assay type: cell-based; conditions: Pseudomonas aeruginosa GN315; 37° C., 18 hours; read-out: Minimum Inhibitory Concentrations
[18] = tested on: Escherichia coli LA290 R56; experiment: as above; assay type: cell-based; conditions: LA290R56, 18 h, read-out: Minimum Inhibitory Concentrations
Escherichia coli K-12 R5 = experiment: as above; assay type: cell-based; conditions: K12R5, 18 h, read-out: Minimum Inhibitory Concentrations
[19] = tested on: Mycobacterium smegmatis ATCC 607; experiment: as above; assay type: cell-based; conditions: Mycolicibacterium smegmatis, ATCC607, 37° C., 18 hours, read-out: Minimum Inhibitory Concentrations
[20] = tested on: Escherichia coli K-12 ML 1410 R81; experiment: as above; assay type: cell-based; conditions: 18 h, read-out: Minimum Inhibitory Concentrations
[21] = tested on: Bacillus cereus ATCC 10702; experiment: as above; assay type: cell-based; conditions: ATCC10702; Bacillus cereus ATCC 10702; 37° C., 18 hours; read-out: Minimum Inhibitory Concentrations
Bacillus anthracis = experiment: microbe, parasite or virus in culture; assay type: cell-based; conditions: 18 h, read-out: Minimum Inhibitory Concentrations
Salmonella typhosa T-63 = experiment: Minimum inhibitory concentration, serial dilution method on nutrient agar; assay type: cell-based; conditions: Salmonella enterica, 18 h, read-out: Minimum Inhibitory Concentrations
[22] = tested on: Bacillus subtilis NRRL B-558; experiment: as above; assay type: cell-based; conditions: NRRLB558, 37° C., 18 hours, read-out: Minimum Inhibitory Concentrations
Staphylococcus aureus = experiment: as above; assay type: cell-based; conditions: 37° C., 18 hours, read-out: Minimum Inhibitory Concentrations
[23] = tested on: Escherichia coli JR66/W677; experiment: as above; assay type: cell-based; conditions: read-out: Minimum Inhibitory Concentrations
[24] = tested on: Salmonella enteritidis 1891; experiment: as above; assay type: cell-based; conditions: Salmonella enterica; Salmonella enteritidis 1891; 37° C., 18 hours; read-out: Minimum Inhibitory Concentrations
[25] = tested on: kanamycin-resistant bacteria; conditions: prior art statement; cited from earlier work
[26] = tested on: Shigella dysenteriae JS 11910; experiment: Minimum inhibitory concentration, serial dilution method on nutrient agar; assay type: cell-based; conditions: JS11910, 18 h, read-out: Minimum Inhibitory Concentrations

SMILES	MIC (Escherichia coli W677)	MIC [2]	MIC (Escherichia coli K-12)	MIC [3]	MIC [4]	MIC [5]	MIC [6]	MIC [7]	MIC (Shigella sonnei JS 11746)	MIC [8]	MIC [9]	MIC [10]	MIC (Proteus vulgaris OX 19)	MIC [11]	MIC (Escherichia coli NIHJ)	MIC [12]	MIC [13]	MIC [14]	MIC [16]	MIC [17]	further results
NCC[C@H](O)C(=O)N[C@@H]1C[C@H](N)[C@@H](O[C@H]2O[C@H](CN)[C@@H](O)[C@H](O)[C@H]2O)[C@H](O)[C@H]1O[C@H]1O[C@H](CO)[C@@H](O)[C@H](N)[C@H]1O [AHB-KMA, 1 N-(L-4-amino-2-hydroxybutyryl)-kanamycin A, reference compound]	< 0.2 µg/mL	0.78 µg/mL (≈ 1.33 µM)	0.78 µg/mL (≈ 1.33 µM)	6.25 µg/mL (≈ 10.7 µM)	0.39 µg/mL (≈ 0.666 µM)	< 0.2 µg/mL	0.78 µg/mL (≈ 1.33 µM)	1.56 µg/mL (≈ 2.66 µM)	1.56 µg/mL (≈ 2.66 µM)	3.13 µg/mL (≈ 5.34 µM)	3.13 µg/mL (≈ 5.34 µM)	0.78 µg/mL (≈ 1.33 µM)	0.78 µg/mL (≈ 1.33 µM)	0.39 µg/mL (≈ 0.666 µM)	0.78 µg/mL (≈ 1.33 µM)	0.39 µg/mL (≈ 0.666 µM)	0.78 µg/mL (≈ 1.33 µM)	< 0.2 µg/mL	0.78 µg/mL (≈ 1.33 µM)	100 µg/mL (≈ 171 µM)	MIC ([1]; Pseudomonas aeruginosa, TI13, 18 h): 3.13 µg/mL (≈ 5.34 µM); MIC (Sarcina lutea PCI 1001; PCI1001, 18 h): 3.13 µg/mL (≈ 5.34 µM); MIC ([15]; Pseudomonas aeruginosa, NO.12, 18 h): 3.13 µg/mL (≈ 5.34 µM); MIC [18]: 0.39 µg/mL (≈ 0.666 µM); MIC (Escherichia coli K-12 R5): 0.39 µg/mL (≈ 0.666 µM); MIC [19]: < 0.2 µg/mL; MIC [20]: 1.56 µg/mL (≈ 2.66 µM); MIC [21]: 0.78 µg/mL (≈ 1.33 µM); MIC (Bacillus anthracis): < 0.2 µg/mL; MIC (Salmonella typhosa T-63): 0.39 µg/mL (≈ 0.666 µM); MIC [22]: < 0.2 µg/mL; MIC (Staphylococcus aureus): < 0.2 µg/mL; MIC ([23]; Escherichia coli, JR66/W677, 18 h): 1.56 µg/mL (≈ 2.66 µM); MIC [24]: 0.78 µg/mL (≈ 1.33 µM); activity against kanamycin-resistant bacteria [25]: active against a large number of kanamycin-resistant bacteria; MIC [26]: 3.13 µg/mL (≈ 5.34 µM)
CNC[C@@H]1CC[C@@H](N)[C@@H](O[C@H]2[C@H](O)[C@@H](O[C@H]3O[C@H](CO)[C@@H](O)[C@H](N)[C@H]3O)[C@H](NC(=O)[C@@H](O)CCCN)C[C@@H]2N)O1 [AHV-MDKB, 1N-(L-5-amino-2-hydroxyvaleryl)-6'N-methyl-3',4'-dideoxykanamycin B]	0.78 µg/mL (≈ 1.34 µM)	6.25 µg/mL (≈ 10.8 µM)	0.78 µg/mL (≈ 1.34 µM)	25 µg/mL (≈ 43.1 µM)	0.78 µg/mL (≈ 1.34 µM)	< 0.2 µg/mL	0.78 µg/mL (≈ 1.34 µM)	3.13 µg/mL (≈ 5.39 µM)	3.13 µg/mL (≈ 5.39 µM)	3.13 µg/mL (≈ 5.39 µM)	3.13 µg/mL (≈ 5.39 µM)	1.56 µg/mL (≈ 2.69 µM)	0.78 µg/mL (≈ 1.34 µM)	0.39 µg/mL (≈ 0.672 µM)	0.78 µg/mL (≈ 1.34 µM)	0.39 µg/mL (≈ 0.672 µM)	0.78 µg/mL (≈ 1.34 µM)	< 0.2 µg/mL	1.56 µg/mL (≈ 2.69 µM)	12.5 µg/mL (≈ 21.5 µM)	MIC ([1]; TI13, Pseudomonas aeruginosa TI-13, 37° C., 18 hours): 6.25 µg/mL (≈ 10.8 µM); MIC (Sarcina lutea PCI 1001; PCI1001, Sarcina lutea PCI 1001, 37° C., 18 hours): 12.5 µg/mL (≈ 21.5 µM); MIC ([15]; Pseudomonas aeruginosa No. 12, 37° C., 18 hours): 25 µg/mL (≈ 43.1 µM); MIC [18]: 0.39 µg/mL (≈ 0.672 µM); MIC (Escherichia coli K-12 R5): 1.56 µg/mL (≈ 2.69 µM); MIC [19]: 0.78 µg/mL (≈ 1.34 µM); MIC [20]: 1.56 µg/mL (≈ 2.69 µM); MIC [21]: 1.56 µg/mL (≈ 2.69 µM); MIC (Bacillus anthracis): < 0.2 µg/mL; MIC (Salmonella typhosa T-63): 0.78 µg/mL (≈ 1.34 µM); MIC [22]: < 0.2 µg/mL; MIC (Staphylococcus aureus): < 0.2 µg/mL; MIC ([23]; Escherichia coli JR66/W677, 37° C., 18 hours): 1.56 µg/mL (≈ 2.69 µM); MIC [24]: 0.78 µg/mL (≈ 1.34 µM); MIC [26]: 3.13 µg/mL (≈ 5.39 µM)
